Test results reported in ChEMBL document CHEMBL1201861, “Genomics of Drug Sensitity in Cancer screening data, Wellcome Trust Sanger Institute”.

What was measured:
Assay in all cases: cells
COR-L105 = type: functional, cell-based, Homo sapiens; settings: Homo sapiens, COR-L105
Description: SANGER: Inhibition of human COR-L105 cell growth in a cell viability assay.

Capan-2 = type: functional, cell-based, Homo sapiens; settings: Homo sapiens, Capan-2
Description: SANGER: Inhibition of human Capan-2 cell growth in a cell viability assay.

D-542MG = type: functional, cell-based, Homo sapiens; settings: Homo sapiens, D-542MG
Description: SANGER: Inhibition of human D-542MG cell growth in a cell viability assay.

DJM-1 = type: functional, cell-based, Homo sapiens; settings: Homo sapiens, DJM-1
Description: SANGER: Inhibition of human DJM-1 cell growth in a cell viability assay.

DMS-273 = type: functional, cell-based, Homo sapiens; settings: Homo sapiens, DMS-273
Description: SANGER: Inhibition of human DMS-273 cell growth in a cell viability assay.

EC-GI-10 = type: functional, cell-based, Homo sapiens; settings: Homo sapiens, EC-GI-10
Description: SANGER: Inhibition of human EC-GI-10 cell growth in a cell viability assay.

ES6 = type: functional, cell-based, Homo sapiens; settings: Homo sapiens, ES6
Description: SANGER: Inhibition of human ES6 cell growth in a cell viability assay.

HCC1937 = type: functional, cell-based, Homo sapiens; settings: Homo sapiens, HCC1937
Description: SANGER: Inhibition of human HCC1937 cell growth in a cell viability assay.

HCC70 = type: functional, cell-based, Homo sapiens; settings: Homo sapiens, HCC70
Description: SANGER: Inhibition of human HCC70 cell growth in a cell viability assay.

HEL = type: functional, cell-based, Homo sapiens; settings: Homo sapiens, HEL
Description: SANGER: Inhibition of human HEL cell growth in a cell viability assay.

HMV-2 cell line = type: functional, cell-based, Homo sapiens; settings: Homo sapiens, HMV-2
Description: SANGER: Inhibition of human HMV-II cell growth in a cell viability assay.

HN = type: functional, cell-based, Homo sapiens; settings: Homo sapiens, HN
Description: SANGER: Inhibition of human HN cell growth in a cell viability assay.

HOS = type: functional, cell-based, Homo sapiens; settings: Homo sapiens, HOS
Description: SANGER: Inhibition of human HOS cell growth in a cell viability assay.

Hs-578T = type: functional, cell-based, Homo sapiens; settings: Homo sapiens, Hs-578T
Description: SANGER: Inhibition of human Hs-578-T cell growth in a cell viability assay.

KP-N-YS = type: functional, cell-based; settings: Homo sapiens
Description: SANGER: Inhibition of human KP-N-YS cell growth in a cell viability assay.

KYSE-180 = type: functional, cell-based, Homo sapiens; settings: Homo sapiens, KYSE-180
Description: SANGER: Inhibition of human KYSE-180 cell growth in a cell viability assay.

LAMA-84 = type: functional, cell-based; settings: Homo sapiens
Description: SANGER: Inhibition of human LAMA-84 cell growth in a cell viability assay.

LS-411N = type: functional, cell-based, Homo sapiens; settings: Homo sapiens, LS-411N
MDA-MB-157 = type: functional, cell-based, Homo sapiens; settings: Homo sapiens, MDA-MB-157
Description: SANGER: Inhibition of human MDA-MB-157 cell growth in a cell viability assay.

MEG-01 = type: functional, cell-based; settings: Homo sapiens
Description: SANGER: Inhibition of human MEG-01 cell growth in a cell viability assay.

MKN-28 = type: functional, cell-based, Homo sapiens; settings: Homo sapiens, MKN-28
Description: SANGER: Inhibition of human MKN28 cell growth in a cell viability assay.

MKN-7 = type: functional, cell-based, Homo sapiens; settings: Homo sapiens, MKN-7
Description: SANGER: Inhibition of human MKN7 cell growth in a cell viability assay.

MSTO-211H = type: functional, cell-based, Homo sapiens; settings: Homo sapiens, MSTO-211H
Description: SANGER: Inhibition of human MSTO-211H cell growth in a cell viability assay.

MZ1-PC = type: functional, cell-based, Homo sapiens; settings: Homo sapiens, MZ1-PC
Description: SANGER: Inhibition of human MZ1-PC cell growth in a cell viability assay.

MeWo = type: functional, cell-based, Homo sapiens; settings: Homo sapiens, MeWo
Description: SANGER: Inhibition of human Mewo cell growth in a cell viability assay.

NCI-H1299 = type: functional, cell-based, Homo sapiens; settings: Homo sapiens, NCI-H1299
Description: SANGER: Inhibition of human NCI-H1299 cell growth in a cell viability assay.

NCI-H1355 = type: functional, cell-based, Homo sapiens; settings: Homo sapiens, NCI-H1355
Description: SANGER: Inhibition of human NCI-H1355 cell growth in a cell viability assay.

NCI-H1651 = type: functional, cell-based, Homo sapiens; settings: Homo sapiens, NCI-H1651
Description: SANGER: Inhibition of human NCI-H1651 cell growth in a cell viability assay.

NCI-H1793 = type: functional, cell-based, Homo sapiens; settings: Homo sapiens, NCI-H1793
Description: SANGER: Inhibition of human NCI-H1793 cell growth in a cell viability assay.

NCI-H2122 = type: functional, cell-based, Homo sapiens; settings: Homo sapiens, NCI-H2122
Description: SANGER: Inhibition of human NCI-H2122 cell growth in a cell viability assay.

OMC-1 = type: functional, cell-based, Homo sapiens; settings: Homo sapiens, OMC-1
Description: SANGER: Inhibition of human OMC-1 cell growth in a cell viability assay.

P12-Ichikawa = type: functional, cell-based; settings: Homo sapiens
Panc1005 = type: functional, cell-based, Homo sapiens; settings: Homo sapiens, Panc1005
Description: SANGER: Inhibition of human PANC-10-05 cell growth in a cell viability assay.

RCC10RGB = type: functional, cell-based, Homo sapiens; settings: Homo sapiens, RCC10RGB
Description: SANGER: Inhibition of human RCC10RGB cell growth in a cell viability assay.

SF-268 = type: functional, cell-based, Homo sapiens; settings: Homo sapiens, SF-268
Description: SANGER: Inhibition of human SF268 cell growth in a cell viability assay.

SK-LMS-1 = type: functional, cell-based, Homo sapiens; settings: Homo sapiens, SK-LMS-1
Description: SANGER: Inhibition of human SK-LMS-1 cell growth in a cell viability assay.

SK-MEL-30 = type: functional, cell-based; settings: Homo sapiens
Description: SANGER: Inhibition of human SK-MEL-30 cell growth in a cell viability assay.

SK-MES-1 = type: functional, cell-based, Homo sapiens; settings: Homo sapiens, SK-MES-1
Description: SANGER: Inhibition of human SK-MES-1 cell growth in a cell viability assay.

SNU-449 = type: functional, cell-based, Homo sapiens; settings: Homo sapiens, SNU-449
Description: SANGER: Inhibition of human SNU-449 cell growth in a cell viability assay.

SW1088 = type: functional, cell-based, Homo sapiens; settings: Homo sapiens, SW1088
Description: SANGER: Inhibition of human SW1088 cell growth in a cell viability assay.

647-V = type: functional, cell-based, Homo sapiens; settings: Homo sapiens, 647-V
Description: SANGER: Inhibition of human 647-V cell growth in a cell viability assay.

A2058 = type: functional, cell-based; settings: Homo sapiens
Description: SANGER: Inhibition of human A2058 cell growth in a cell viability assay.

A-427 = type: functional, cell-based, Homo sapiens; settings: Homo sapiens, A-427
Description: SANGER: Inhibition of human A427 cell growth in a cell viability assay.

BB65-RCC = type: functional, cell-based, Homo sapiens; settings: Homo sapiens, BB65-RCC
Description: SANGER: Inhibition of human BB65-RCC cell growth in a cell viability assay.

BFTC-905 = type: functional, cell-based, Homo sapiens; settings: Homo sapiens, BFTC-905
Description: SANGER: Inhibition of human BFTC-905 cell growth in a cell viability assay.

UACC-257 = type: functional, cell-based, Homo sapiens; settings: Homo sapiens, UACC-257
Description: SANGER: Inhibition of human UACC-257 cell growth in a cell viability assay.

VM-CUB-1 = type: functional, cell-based; settings: Homo sapiens
Description: SANGER: Inhibition of human VM-CUB-1 cell growth in a cell viability assay.

YAPC = type: functional, cell-based, Homo sapiens; settings: Homo sapiens, YAPC
Description: SANGER: Inhibition of human YAPC cell growth in a cell viability assay.

CCRF-CEM = type: functional, cell-based; settings: Homo sapiens
Description: SANGER: Inhibition of human CCRF-CEM cell growth in a cell viability assay.

CHP-212 = type: functional, cell-based, Homo sapiens; settings: Homo sapiens, CHP-212
Description: SANGER: Inhibition of human CHP-212 cell growth in a cell viability assay.

## C[C@]1(O)C[C@@H](c2nc(-c3ccc4ccc(-c5ccccc5)nc4c3)c3c(N)nccn32)C1 [LINSITINIB]
COR-L105
  IC50: > 2.56 µM
Capan-2
  IC50: > 2.56 µM
D-542MG
  IC50: > 2.56 µM
DJM-1
  IC50: > 2.56 µM
DMS-273
  IC50: > 2.56 µM
EC-GI-10
  IC50: > 2.56 µM
ES6
  IC50: 0.911 µM
HCC1937
  IC50: > 2.56 µM
HCC70
  IC50: > 2.56 µM
HEL
  IC50: > 2.56 µM
HMV-2 cell line
  IC50: 0.0885 µM
HN
  IC50: > 2.56 µM
HOS
  IC50: > 2.56 µM
Hs-578T
  IC50: > 2.56 µM
KP-N-YS
  IC50: > 2.56 µM
KYSE-180
  IC50: > 2.56 µM
LAMA-84
  IC50: > 2.56 µM
LS-411N
  IC50: > 2.56 µM
MDA-MB-157
  IC50: > 2.56 µM
MEG-01
  IC50: > 2.56 µM
MKN-28
  IC50: > 2.56 µM
MKN-7
  IC50: > 2.56 µM
MSTO-211H
  IC50: > 2.56 µM
MZ1-PC
  IC50: > 2.56 µM
MeWo
  IC50: > 2.56 µM
NCI-H1299
  IC50: > 2.56 µM
NCI-H1355
  IC50: 0.181 µM
NCI-H1651
  IC50: > 2.56 µM
NCI-H1793
  IC50: > 2.56 µM
NCI-H2122
  IC50: 0.233 µM
OMC-1
  IC50: > 2.56 µM
P12-Ichikawa
  IC50: > 2.56 µM
Panc1005
  IC50: > 2.56 µM
RCC10RGB
  IC50: > 2.56 µM
SF-268
  IC50: > 2.56 µM
SK-LMS-1
  IC50: > 2.56 µM
SK-MEL-30
  IC50: > 2.56 µM
SK-MES-1
  IC50: > 2.56 µM
SNU-449
  IC50: > 2.56 µM
SW1088
  IC50: > 2.56 µM
647-V
  IC50: > 2.56 µM
A2058
  IC50: > 2.56 µM
A-427
  IC50: > 2.56 µM
BB65-RCC
  IC50: > 2.56 µM
BFTC-905
  IC50: 0.468 µM
UACC-257
  IC50: > 2.56 µM
VM-CUB-1
  IC50: > 2.56 µM
YAPC
  IC50: > 2.56 µM
CCRF-CEM
  IC50: > 2.56 µM
CHP-212
  IC50: > 2.56 µM

## C=CCc1cccc(/C=N/NC(=O)CN2CCN(Cc3ccccc3)CC2)c1O [PAC-1]
COR-L105
  IC50: > 2.56 µM
Capan-2
  IC50: > 2.56 µM
D-542MG
  IC50: > 2.56 µM
DJM-1
  IC50: > 2.56 µM
DMS-273
  IC50: > 2.56 µM
EC-GI-10
  IC50: > 2.56 µM
ES6
  IC50: 1.49 µM
HCC1937
  IC50: > 2.56 µM
HCC70
  IC50: > 2.56 µM
HEL
  IC50: > 2.56 µM
HMV-2 cell line
  IC50: > 2.56 µM
HN
  IC50: > 2.56 µM
HOS
  IC50: > 2.56 µM
Hs-578T
  IC50: > 2.56 µM
KP-N-YS
  IC50: > 2.56 µM
KYSE-180
  IC50: > 2.56 µM
LAMA-84
  IC50: > 2.56 µM
LS-411N
  IC50: 2.08 µM
MDA-MB-157
  IC50: > 2.56 µM
MEG-01
  IC50: > 2.56 µM
MKN-28
  IC50: > 2.56 µM
MKN-7
  IC50: > 2.56 µM
MSTO-211H
  IC50: > 2.56 µM
MZ1-PC
  IC50: > 2.56 µM
MeWo
  IC50: > 2.56 µM
NCI-H1299
  IC50: > 2.56 µM
NCI-H1355
  IC50: > 2.56 µM
NCI-H1651
  IC50: > 2.56 µM
NCI-H1793
  IC50: > 2.56 µM
NCI-H2122
  IC50: > 2.56 µM
OMC-1
  IC50: > 2.56 µM
P12-Ichikawa
  IC50: > 2.56 µM
Panc1005
  IC50: > 2.56 µM
RCC10RGB
  IC50: > 2.56 µM
SF-268
  IC50: > 2.56 µM
SK-LMS-1
  IC50: > 2.56 µM
SK-MEL-30
  IC50: > 2.56 µM
SK-MES-1
  IC50: > 2.56 µM
SNU-449
  IC50: > 2.56 µM
SW1088
  IC50: > 2.56 µM
647-V
  IC50: > 2.56 µM
A2058
  IC50: > 2.56 µM
A-427
  IC50: > 2.56 µM
BB65-RCC
  IC50: > 2.56 µM
BFTC-905
  IC50: > 2.56 µM
UACC-257
  IC50: > 2.56 µM
VM-CUB-1
  IC50: > 2.56 µM
YAPC
  IC50: > 2.56 µM
CCRF-CEM
  IC50: 0.566 µM
CHP-212
  IC50: > 2.56 µM
